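Five concentrations, 48 hours, 96-well plates. GI50 is the concentration that inhibits growth by half.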 Active and inactive are the calls of the source. Cut-off read from the data, not from the text of the source: active = GI50 up to about 1.1 µM and inactive = higher.
Tests used:
Assay in all cases: NCI-60 cell line screen, 48 h
NCI-H226 = tested on: NCI-H226
SK-MEL-5 = tested on: SK-MEL-5
RXF 631 = tested on: RXF 631
K562 = tested on: K562
NCI-H522 = tested on: NCI-H522
HCC 2998 = tested on: HCC 2998
IGROV-1 = tested on: IGROV-1
HCT-15 = tested on: HCT-15
HT-29 = tested on: HT-29
SF-539 = tested on: SF-539
SNB-19 = tested on: SNB-19
Malme-3M = tested on: Malme-3M
U-251 = tested on: U-251
MOLT-4 = tested on: MOLT-4
OVCAR-5 = tested on: OVCAR-5
SN12C = tested on: SN12C
KM12 = tested on: KM12
A549 = tested on: A549
SR = tested on: SR
A498 = tested on: A498
LXFL 529 = tested on: LXFL 529
UACC-257 = tested on: UACC-257
SW-620 = tested on: SW-620
HOP-92 = tested on: HOP-92
XF498 = tested on: XF498
HL-60 = tested on: HL-60
OVCAR-8 = tested on: OVCAR-8
SF-295 = tested on: SF-295
HCT-116 = tested on: HCT-116
786-0 = tested on: 786-0
KM-20L2 = tested on: KM-20L2
HOP-18 = tested on: HOP-18
SK-MEL-2 = tested on: SK-MEL-2
NCI-H23 = tested on: NCI-H23
UACC-62 = tested on: UACC-62
SK-OV-3 = tested on: SK-OV-3
SNB-75 = tested on: SNB-75
DMS-273 = tested on: DMS-273
DLD-1 = tested on: DLD-1
TK-10 = tested on: TK-10
EKVX = tested on: EKVX
OVCAR-4 = tested on: OVCAR-4
M14 = tested on: M14
DMS-114 = tested on: DMS-114
M19-MEL = tested on: M19-MEL
NCI-H460 = tested on: NCI-H460
ACHN = tested on: ACHN
CCRF-CEM = tested on: CCRF-CEM
RXF 393 = tested on: RXF 393
SK-MEL-28 = tested on: SK-MEL-28
HOP-62 = tested on: HOP-62
SF-268 = tested on: SF-268
UO-31 = tested on: UO-31
CAKI-1 = tested on: CAKI-1
MCF7 = tested on: MCF7
DU-145 = tested on: DU-145
LOX IMVI = tested on: LOX IMVI
PC-3 = tested on: PC-3
SNB-78 = tested on: SNB-78
NCI/ADR-RES = tested on: NCI/ADR-RES
MDA-MB-435 = tested on: MDA-MB-435
OVCAR-3 = tested on: OVCAR-3
Hs-578T = tested on: Hs-578T
BT-549 = tested on: BT-549
MDA-MB-231 = tested on: MDA-MB-231
MDA-N = tested on: MDA-N

Compound: CN(C)C(=S)/N=c1\ssc(=S)n1C1CCCCC1
- GI50 (NCI-H226): 52.5 µM (inactive)
- GI50 (SK-MEL-5): 12.4 µM (inactive)
- GI50 (RXF 631): 19.5 µM (inactive)
- GI50 (K562): 16.9 µM (inactive)
- GI50 (NCI-H522): 13.1 µM (inactive)
- GI50 (HCC 2998): 37.1 µM (inactive)
- GI50 (IGROV-1): 98.9 µM (inactive)
- GI50 (HCT-15): 33.1 µM
- GI50 (HT-29): 35.7 µM (inactive)
- GI50 (SF-539): 20.7 µM (inactive)
- GI50 (SNB-19): 57.7 µM (inactive)
- GI50 (Malme-3M): 23.4 µM (inactive)
- GI50 (U-251): 17 µM (inactive)
- GI50 (MOLT-4): 18.2 µM (inactive)
- GI50 (OVCAR-5): 74.1 µM (inactive)
- GI50 (SN12C): 29.4 µM (inactive)
- GI50 (KM12): 35.7 µM (inactive)
- GI50 (A549): 22.8 µM (inactive)
- GI50 (SR): 20.5 µM (inactive)
- GI50 (A498): 37.2 µM (inactive)
- GI50 (LXFL 529): 13.2 µM (inactive)
- GI50 (UACC-257): 22.4 µM (inactive)
- GI50 (SW-620): 13.7 µM (inactive)
- GI50 (HOP-92): 35.2 µM (inactive)
- GI50 (XF498): 19.4 µM (inactive)
- GI50 (HL-60): 11.2 µM (inactive)
- GI50 (OVCAR-8): 21.4 µM (inactive)
- GI50 (SF-295): 60.5 µM (inactive)
- GI50 (HCT-116): 16.5 µM (inactive)
- GI50 (786-0): 17.1 µM (inactive)
- GI50 (KM-20L2): 40.5 µM (inactive)
- GI50 (HOP-18): > 100 µM (inactive)
- GI50 (SK-MEL-2): 52.8 µM (inactive)
- GI50 (NCI-H23): 44 µM (inactive)
- GI50 (UACC-62): 10.4 µM (inactive)
- GI50 (SK-OV-3): > 100 µM (inactive)
- GI50 (SNB-75): 42.7 µM (inactive)
- GI50 (DMS-273): 28.2 µM (inactive)
- GI50 (DLD-1): 21.5 µM (inactive)
- GI50 (TK-10): > 100 µM (inactive)
- GI50 (EKVX): 45.7 µM (inactive)
- GI50 (OVCAR-4): 39.4 µM (inactive)
- GI50 (M14): 14.7 µM (inactive)
- GI50 (DMS-114): 13.9 µM (inactive)
- GI50 (M19-MEL): 18.7 µM (inactive)
- GI50 (NCI-H460): 18 µM (inactive)
- GI50 (ACHN): 35.9 µM (inactive)
- GI50 (CCRF-CEM): 0.23 µM (active)
- GI50 (RXF 393): 33.3 µM (inactive)
- GI50 (SK-MEL-28): 36.1 µM (inactive)
- GI50 (HOP-62): > 100 µM (inactive)
- GI50 (SF-268): 32.4 µM (inactive)
- GI50 (UO-31): 61.1 µM (inactive)
- GI50 (CAKI-1): 33 µM (inactive)

Compound: O=C1/C(=C/c2ccc(Cl)c(Cl)c2)CN(C(=O)CCN2CCOCC2)C/C1=C\c1ccc(Cl)c(Cl)c1
- GI50 (MCF7): 0.0184 µM (active)
- GI50 (NCI-H226): 2.04 µM (inactive)
- GI50 (RXF 631): 2.94 µM (inactive)
- GI50 (HCC 2998): 2.09 µM (inactive)
- GI50 (MOLT-4): 0.00283 µM (active)
- GI50 (DU-145): 0.0373 µM (active)
- GI50 (LXFL 529): 1.56 µM (inactive)
- GI50 (LOX IMVI): 0.00217 µM (active)
- GI50 (PC-3): 0.00331 µM (active)
- GI50 (KM-20L2): 1.38 µM (inactive)
- GI50 (HOP-18): 2.55 µM (inactive)
- GI50 (SNB-78): 2.66 µM (inactive)
- GI50 (NCI/ADR-RES): 0.0043 µM (active)
- GI50 (UACC-62): 1.71 µM (inactive)
- GI50 (MDA-MB-435): 0.0121 µM (active)
- GI50 (OVCAR-3): 0.00454 µM (active)
- GI50 (DMS-273): 1.12 µM (inactive)
- GI50 (DLD-1): 0.182 µM (active)
- GI50 (EKVX): 2.4 µM (inactive)
- GI50 (OVCAR-4): 0.00395 µM (active)
- GI50 (DMS-114): 0.746 µM (active)
- GI50 (Hs-578T): 7.76 µM (inactive)
- GI50 (M19-MEL): 1.64 µM (inactive)
- GI50 (BT-549): 0.0169 µM (active)
- GI50 (MDA-MB-231): 0.00286 µM (active)
- GI50 (CAKI-1): 1.51 µM (inactive)
- GI50 (MDA-N): 0.0145 µM (active)

— ChEMBL document CHEMBL1201862, “PubChem BioAssay data set” (2004)
